Reference: ChEMBL document CHEMBL1135314, “Synthesis of tag introducible (3-trifluoromethyl)phenyldiazirine based photoreactive phenylalanine” (Bioorg Med Chem Lett, 2002)

Test: Half life of compound was determined.
Assay type: ADME

Row | SMILES | half-life
1 | N[C@@H](Cc1ccc(C2(C(F)(F)F)N=N2)cc1OCCOCCOCCNC(=O)CCCC[C@@H]1SC[C@@H]2NC(=O)N[C@@H]21)C(=O)O | 2.3 min
2 | N[C@@H](Cc1ccc(C2(C(F)(F)F)N=N2)cc1OCCNC(=O)CCCC[C@@H]1SC[C@@H]2NC(=O)N[C@@H]21)C(=O)O | 2.6 min
